The values that follow come from patent US9260439B2, “Dihydropyrrolopyrimidine derivatives” (PFIZER INC., priority 2014, dated 2016).

This experiment has as its target truncated PI3Kα (p110α/iSH2 p85α) (Homo sapiens (Human), UniProt P42336). As to the kind of experiment: PI3KA_Act fluorescence polarization kinase assay (Ki). The format is biochemical. The following applies: 1 mM ATP. The procedure, abridged:
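Ki values result from fitting fluorescence polarization signals to the Morrison equation for tight-binding competitive inhibitors. The detector was GST-Grp1 PH domain with TAMRA-PIP3, read after a 30 min room-temperature reaction of 0.5 nM truncated PI3Kα and 30 μM PIP2 at pH 7.4 in HEPES/NaCl/MgCl2/DTT/CHAPS buffer. Compounds were tested as 12-point 3-fold dilutions from 3 μM.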

Some results are limits rather than exact numbers.

Chain of truncated PI3Kα (p110α/iSH2 p85α) (P42336 whole entry, the tested form may be a part): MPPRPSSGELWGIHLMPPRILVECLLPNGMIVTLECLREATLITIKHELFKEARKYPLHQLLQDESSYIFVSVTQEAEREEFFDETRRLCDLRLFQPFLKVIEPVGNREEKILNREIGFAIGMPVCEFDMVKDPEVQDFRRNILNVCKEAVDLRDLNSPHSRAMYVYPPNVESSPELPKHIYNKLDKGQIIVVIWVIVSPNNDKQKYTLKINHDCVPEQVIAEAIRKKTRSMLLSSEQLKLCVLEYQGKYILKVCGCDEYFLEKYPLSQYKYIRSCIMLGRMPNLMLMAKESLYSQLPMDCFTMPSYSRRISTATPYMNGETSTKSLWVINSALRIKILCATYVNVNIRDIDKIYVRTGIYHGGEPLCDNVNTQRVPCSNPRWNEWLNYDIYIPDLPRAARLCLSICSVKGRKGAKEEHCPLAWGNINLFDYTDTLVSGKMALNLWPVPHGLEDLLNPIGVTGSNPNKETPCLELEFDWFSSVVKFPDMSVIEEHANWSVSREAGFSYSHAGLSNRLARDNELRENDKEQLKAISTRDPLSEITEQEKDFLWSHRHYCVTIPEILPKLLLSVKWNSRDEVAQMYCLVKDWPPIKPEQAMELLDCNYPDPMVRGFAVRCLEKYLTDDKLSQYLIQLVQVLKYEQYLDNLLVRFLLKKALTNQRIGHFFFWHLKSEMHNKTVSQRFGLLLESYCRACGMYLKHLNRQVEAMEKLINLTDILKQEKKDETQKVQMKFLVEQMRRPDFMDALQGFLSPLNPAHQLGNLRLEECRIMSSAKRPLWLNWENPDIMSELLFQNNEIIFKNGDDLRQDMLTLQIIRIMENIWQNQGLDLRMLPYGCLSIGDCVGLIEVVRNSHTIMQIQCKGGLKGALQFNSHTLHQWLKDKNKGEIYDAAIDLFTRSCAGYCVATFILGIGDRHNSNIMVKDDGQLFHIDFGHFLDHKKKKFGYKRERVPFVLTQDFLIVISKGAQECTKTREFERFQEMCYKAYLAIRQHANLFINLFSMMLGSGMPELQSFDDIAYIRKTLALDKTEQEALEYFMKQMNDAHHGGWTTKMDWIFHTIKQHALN

With `CC1(N2CCc3c(-c4cnc(N)nc4)nc(N4CCOCC4)nc32)CNC1` [Example 199], the “PI3KA_Act Ki” value turned out to be 151 pM.

For `CCOC(=O)C(C)(C)N1CCc2c(-c3cnc(N)nc3)nc(N3CCOC[C@@H]3C)nc21` [Example 200], the “PI3KA_Act Ki” value came out at 909 pM.

As to `COCCC(=O)N1CC(N2CCc3c(-c4cnc(N)nc4)nc(N4CCOC[C@@H]4C)nc32)C1` [Example 202], the “PI3KA_Act Ki” value worked out at 1037 pM.

Consider `CCS(=O)(=O)N1CC(C)(N2CCc3c(-c4cnc(N)nc4)nc(N4CCOC[C@@H]4C)nc32)C1` [Example 203], for which the “PI3KA_Act Ki” value came out at 32 pM.

`CC(C)S(=O)(=O)N1CC(C)(N2CCc3c(-c4cnc(N)nc4)nc(N4CCOC[C@@H]4C)nc32)C1` [Example 204]: the “PI3KA_Act Ki” value is less than 18 pM.

Take `C[C@H]1COCCN1c1nc(-c2cnc(N)nc2)c2c(n1)N(C1(C)CN(S(=O)(=O)C3CC3)C1)CC2` [Example 205]: the “PI3KA_Act Ki” value is 21 pM.

Regarding `C[C@H]1COCCN1c1nc(-c2cnc(N)nc2)c2c(n1)N(C1(C)CN(S(C)(=O)=O)C1)CC2` [Example 206], the “PI3KA_Act Ki” value stood at 31 pM.

Consider `C[C@H]1COCCN1c1nc(-c2cnc(N)nc2)c2c(n1)N(C1CN(S(=O)(=O)C3CN(C(=O)OC(C)(C)C)C3)C1)CC2` [Example 207], for which the “PI3KA_Act Ki” value was 100 pM.

Turning to `CC1(N2CCc3c(-c4cnc(N)nc4)nc(N4CCOCC4)nc32)CN(S(N)(=O)=O)C1` [Example 208], the “PI3KA_Act Ki” value is 62 pM.

As to `CC1(N2CCc3c(-c4cnc(N)nc4)nc(N4CCOCC4)nc32)CN(S(C)(=O)=O)C1` [Example 209], the “PI3KA_Act Ki” value was 45 pM.

Take `CC(=O)NCC(=O)N1CC(N2CCc3c(-c4cnc(N)nc4)nc(N4CCOCC4)nc32)C1` [Example 210]: the “PI3KA_Act Ki” value was 898 pM.

Turning to `CC(=O)N1CC[C@@](C)(N2CCc3c(-c4cnc(N)nc4)nc(N4CCOCC4)nc32)C1` [Example 211], the “PI3KA_Act Ki” value worked out at 78 pM.

As to `CC(C)C(=O)NCC(=O)N1CC(N2CCc3c(-c4cnc(N)nc4)nc(N4CCOC[C@@H]4C)nc32)C1` [Example 212], the “PI3KA_Act Ki” value came to 534 pM.

`COC(=O)N1CC[C@](C)(N2CCc3c(-c4cnc(N)nc4)nc(N4CCOCC4)nc32)C1` [Example 213]: the “PI3KA_Act Ki” value worked out at 30 pM.

Turning to `COC(=O)N1CC[C@@](C)(N2CCc3c(-c4cnc(N)nc4)nc(N4CCOCC4)nc32)C1` [Example 214], the “PI3KA_Act Ki” value worked out at 128 pM.

As to `C[C@@]1(N2CCc3c(-c4cnc(N)nc4)nc(N4CCOCC4)nc32)CCNC1` [Example 215], the “PI3KA_Act Ki” value was found to be 476 pM.

For `CNC(=O)N1CC[C@](C)(N2CCc3c(-c4cnc(N)nc4)nc(N4CCOCC4)nc32)C1` [Example 216], the “PI3KA_Act Ki” value turned out to be 124 pM.

Take `CN(CC(C)(C)N1CCc2c(-c3cnc(N)nc3)nc(N3CCOCC3)nc21)S(C)(=O)=O` [Example 217]: the “PI3KA_Act Ki” value was 191 pM.

In the case of `CC(C)C(=O)NCC(=O)N1CC(N2CCc3c(-c4cnc(N)nc4)nc(N4CCOCC4)nc32)C1` [Example 218], the “PI3KA_Act Ki” value amounted to 751 pM.

For the compound `C[C@H]1COCCN1c1nc(-c2cnc(N)nc2)c2c(n1)N(C1(C)CN(S(N)(=O)=O)C1)CC2` [Example 219], the “PI3KA_Act Ki” value came to 37 pM.

As to `CNS(=O)(=O)N1CC(C)(N2CCc3c(-c4cnc(N)nc4)nc(N4CCOC[C@@H]4C)nc32)C1` [Example 220], the “PI3KA_Act Ki” value was 53 pM.

As to `COCCC(=O)N1CC(N2CCc3c(-c4cnc(N)nc4)nc(N4CCOCC4)nc32)C1` [Example 221], the “PI3KA_Act Ki” value was found to be 1291 pM.

For `C[C@H]1COCCN1c1nc(-c2cnc(N)nc2)c2c(n1)N(C1CN(S(=O)(=O)C3CNC3)C1)CC2` [Example 222], the “PI3KA_Act Ki” value was 101 pM.

Consider `CC(=O)N1CC(S(=O)(=O)N2CC(N3CCc4c(-c5cnc(N)nc5)nc(N5CCOC[C@@H]5C)nc43)C2)C1` [Example 223], for which the “PI3KA_Act Ki” value came to 393 pM.

`CC(C)S(=O)(=O)N1CC(N2CCc3c(-c4cnc(N)nc4)nc(N4CCOC[C@H]4C)nc32)C1` [Example 224]: the “PI3KA_Act Ki” value stood at 2296 pM.

In the case of `C[C@@H]1COCCN1c1nc(-c2cnc(N)nc2)c2c(n1)N([C@@]1(C)CCNC1)CC2` [Example 225], the “PI3KA_Act Ki” value amounted to 4151 pM.

Regarding `C[C@@H]1COCCN1c1nc(-c2cnc(N)nc2)c2c(n1)N([C@]1(C)CCNC1)CC2` [Example 226], the “PI3KA_Act Ki” value was 7437 pM.

Turning to `C[C@@H]1COCCN1c1nc(-c2cnc(N)nc2)c2c(n1)N(C1(C)CCN(C(=O)OC(C)(C)C)C1)CC2` (some centres unmarked) [Example 228], the “PI3KA_Act Ki” value was determined as 164 pM.

With `C[C@@H]1COCCN1c1nc(-c2cnc(N)nc2)c2c(n1)N([C@@]1(C)CCN(C(=O)OC(C)(C)C)C1)CC2` [Example 229], the “PI3KA_Act Ki” value turned out to be 55 pM.

Take `C[C@@H]1COCCN1c1nc(-c2cnc(N)nc2)c2c(n1)N([C@]1(C)CCN(C(=O)OC(C)(C)C)C1)CC2` [Example 230]: the “PI3KA_Act Ki” value was 6996 pM.

For `C[C@@H]1COCCN1c1nc(-c2cnc(N)nc2)c2c(n1)N([C@@]1(C)CCN(S(C)(=O)=O)C1)CC2` [Example 231], the “PI3KA_Act Ki” value came out at 1493 pM.

With `C[C@@H]1COCCN1c1nc(-c2cnc(N)nc2)c2c(n1)N([C@]1(C)CCN(S(C)(=O)=O)C1)CC2` [Example 232], the “PI3KA_Act Ki” value was 4263 pM.

`[2H]C1([2H])CN(c2nc(-c3cnc(N)nc3)c3c(n2)N([C@@]2(C)CCN(C(=O)C(C)(C)N)C2)CC3)CC([2H])([2H])O1` [Example 233] gave a Ki of less than 18 pM.

The compound `[2H]C1([2H])CN(c2nc(-c3cnc(N)nc3)c3c(n2)N([C@@]2(C)CCN(C(=O)C(C)(C)NC(=O)OC(C)(C)C)C2)CC3)CC([2H])([2H])O1` [Example 234] gave a Ki of 509 pM.

For the compound `[2H]C1([2H])OC([2H])([2H])C([2H])([2H])N(c2nc(-c3cnc(N)nc3)c3c(n2)N([C@@]2(C)CCN(C(=O)C(C)(C)NC(=O)OC(C)(C)C)C2)CC3)C1([2H])[2H]` [Example 235], the Ki is 693 pM.

The compound `[2H]C1([2H])OC([2H])([2H])C([2H])([2H])N(c2nc(-c3cnc(N)nc3)c3c(n2)N([C@@]2(C)CCN(C(=O)C4(C)CC4)C2)CC3)C1([2H])[2H]` [Example 236] yielded an inhibition constant (Ki) of less than 18 pM.

`[2H]C1([2H])CN(c2nc(-c3cnc(N)nc3)c3c(n2)N([C@@]2(C)CCN(C(=O)C4(C)CC4)C2)CC3)CC([2H])([2H])O1` [Example 237] registered an inhibition constant (Ki) of 25 pM.

For the compound `[2H]C1([2H])OC([2H])([2H])C([2H])([2H])N(c2nc(-c3cnc(N)nc3)c3c(n2)N([C@@]2(C)CCN(C(=O)OC(C)(C)C)C2)CC3)C1([2H])[2H]` [Example 238], the inhibitory constant (Ki) is less than 18 pM.

With `[2H]C1([2H])CN(c2nc(-c3cnc(N)nc3)c3c(n2)N([C@@]2(C)CCN(C(=O)OC(C)(C)C)C2)CC3)CC([2H])([2H])O1` [Example 239], the Ki is less than 18 pM.

Take `CC(=O)N1CC(C)(N2CCc3c(-c4cnc(N)nc4)nc(N4CCOCC4)nc32)C1` [Example 240, 1-{3-[4-(2-aminopyrimidin-5-yl)-2-(morpholin-4-yl)-5,6-dihydro-7H-pyrrolo[2,3-d]pyrimidin-7-yl]-3-methylazetidin-1-yl}ethanone]: the “PI3KA_Act Ki” value was 93 pM.

`CC(C)(O)C(=O)N1CC(N2CCc3c(-c4cnc(N)nc4)nc(N4CCOCC4)nc32)C1` [Example 241, 1-{3-[4-(2-aminopyrimidin-5-yl)-2-(morpholin-4-yl)-5,6-dihydro-7H-pyrrolo[2,3-d]pyrimidin-7-yl]azetidin-1-yl}-2-hydroxy-2-methylpropan-1-one]: the “PI3KA_Act Ki” value worked out at 1174 pM.

With `CC(C)(O)C(=O)N1CC(C)(N2CCc3c(-c4cnc(N)nc4)nc(N4CCOCC4)nc32)C1` [Example 242, 1-{3-[4-(2-aminopyrimidin-5-yl)-2-(morpholin-4-yl)-5,6-dihydro-7H-pyrrolo[2,3-d]pyrimidin-7-yl]-3-methylazetidin-1-yl}-2-hydroxy-2-methylpropan-1-one], the “PI3KA_Act Ki” value amounted to 158 pM.

In the case of `CC(C)(N)C(=O)N1CC(C)(N2CCc3c(-c4cnc(N)nc4)nc(N4CCOCC4)nc32)C1` [Example 243, 2-amino-1-{3-[4-(2-aminopyrimidin-5-yl)-2-(morpholin-4-yl)-5,6-dihydro-7H-pyrrolo[2,3-d]pyrimidin-7-yl]-3-methylazetidin-1-yl}-2-methylpropan-1-one], the “PI3KA_Act Ki” value was found to be 165 pM.

Consider `CCC(=O)NCC(=O)N1CC(N2CCc3c(-c4cnc(N)nc4)nc(N4CCOCC4)nc32)C1` [Example 244, N-(2-{3-[4-(2-aminopyrimidin-5-yl)-2-(morpholin-4-yl)-5,6-dihydro-7H-pyrrolo[2,3-d]pyrimidin-7-yl]azetidin-1-yl}-2-oxoethyl)propanamide], for which the “PI3KA_Act Ki” value was 598 pM.

For `CC1(C(=O)N2CC(N3CCc4c(-c5cnc(N)nc5)nc(N5CCOCC5)nc43)C2)CC1` [Example 245, {3-[4-(2-aminopyrimidin-5-yl)-2-(morpholin-4-yl)-5,6-dihydro-7H-pyrrolo[2,3-d]pyrimidin-7-yl]azetidin-1-yl}(1-methylcyclopropyl) methanone], the “PI3KA_Act Ki” value was 4212 pM.

Consider `CC1(C(=O)N2CC(C)(N3CCc4c(-c5cnc(N)nc5)nc(N5CCOCC5)nc43)C2)CC1` [Example 246, {3-[4-(2-aminopyrimidin-5-yl)-2-(morpholin-4-yl)-5,6-dihydro-7H-pyrrolo[2,3-d]pyrimidin-7-yl]-3-methylazetidin-1-yl}(1-methylcyclopropyl) methanone], for which the “PI3KA_Act Ki” value came out at 60 pM.

Take `COC(=O)N1CC(C)(N2CCc3c(-c4cnc(N)nc4)nc(N4CCOCC4)nc32)C1` [Example 247, methyl 3-[4-(2-aminopyrimidin-5-yl)-2-(morpholin-4-yl)-5,6-dihydro-7H-pyrrolo[2,3-d]pyrimidin-7-yl]-3-methylazetidine-1-carboxylate]: the “PI3KA_Act Ki” value was 55 pM.
